Columns and labels:
[1] = pH 7.4; cited from earlier work
[2] = target: T1, Human leukocyte elastase (HLE) (Homo sapiens, UniProt P08246); assay: Cleavage of MeO-suc-ala-ala-pro-val-DOPE by HLE (TLC, 31P-NMR); format: biochemical; settings: 2 hours
T1 construct: purchased Calbiochem (San Diego, Calif.)
T1 sequence (P08246 30-247 limits assumed): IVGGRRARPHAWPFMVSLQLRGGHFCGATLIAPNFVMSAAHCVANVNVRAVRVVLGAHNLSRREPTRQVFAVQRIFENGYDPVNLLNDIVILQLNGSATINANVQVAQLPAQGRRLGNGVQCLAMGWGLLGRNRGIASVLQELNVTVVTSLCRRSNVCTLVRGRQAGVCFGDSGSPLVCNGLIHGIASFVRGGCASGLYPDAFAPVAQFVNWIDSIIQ
Description: To determine if the peptide-lipid MeO-suc-ala-ala-pro-val-DOPE (SEQ ID NO:42) is also a suitable substrate for elastase mediated cleavage 50 nmol of MeO-suc-ala-ala-pro-val-DOPE liposomes (SUVs) were incubated with 0, 2.5, 5, 10, or 20 ug HLE (from Calbiochem; 20 units/mg protein; 1 unit=amount of enzyme that will hydrolyze 1.0 umol of MeO-suc-ala-ala-pro-val-pNA per min at 25 degrees C., pH 8.0) overnight at 37 degrees C. in 50 ul volume of 10 mM TES/ 154 mM NaCl/ 0.1 mM EDTA, pH 7.4, containing 1.5 mM Ca and 1.5 mM Mg.
Lipid was extracted using the Bligh-Dyer technique (chloroform/methanol/water: 2/1.7/1), dried under nitrogen, placed under high vacuum for ˜3 hours. Samples were resuspended in 5 ul chloroform and spotted onto TLC plates. 20 ug of pure DOPE was also spotted for comparison purposes. TLC solvent system was chloroform/methanol/ammonium hydroxide (65/25/5). Plates were air dried, sprayed with molybdenate blue, then charred at 180 degrees C.
MeO-suc-ala-ala-pro-val-DOPE liposomes were incubated with 0 or 5 ug HLE for 1, 2, 4 hours, or overnight and processed as above. The peptide was cleaved by HLE in as little as 1 hour at 37 degrees C.
The conversion of MeO-suc-AAPV-DOPE to DOPE (SEQ ID NO:42) was also quantitated by ^31P-NMR. […] A small shoulder that may indicate an incomplete peptide cleavage product was also observed near the original peptide-lipid peak. Treatment with 5 micrograms of elastase/100 nmol lipid yielded 20% DOPE. Longer incubation may have lead to further digestion, though multiple lamellae and/or the surface charge of the liposome may limit the ultimate amount digested. The maximum exposed peptide-lipid for intact liposomes would occur with unilamellar vesicles. Assuming only the outer leaflet peptide-lipid in unilamellar vesicles is available for digestion, the minimal percentage conversion of exposed MeO-suc-AAPV-DOPE (SEQ ID NO:42) to DOPE in the outer leaflet lipid of this preparation was 40% (FIG. 6, dotted line). If the average number of lamellae were greater than one, the percentage conversion was even higher. […]

[3] = test system: S. caespitosus protease, peptidase, chymotrypsin, trypsin, protease type I; assay: Cleavage of N-Ac-ala-ala-DOPE by other proteases (HPLC); format: biochemical; settings: DOTAP/N-acetyl-ala-ala-PE 1:1 SUVs, 100 nmole, 0.5 or 1.0 mg enzyme, overnight, 37 degrees C.
Description: (§1) To compare the effect of different proteolytic enzymes on the cleavage of N-acetyl-ala-ala-DOPE, small unilamellar liposomes composed of DOTAP and N-acetyl-ala-ala-PE (1:1 molar ratio, 100 nmole), prepared as described hereinabove, were incubated overnight at 37 degrees C. with either 0.5 mg (experiment 1) or 1.0 mg (experiment 2) of: S. caespitosus protease, S. priseus (“pronase”), peptidase, chymotrypsin, trypsin, protease type I, proteinase K, or with no enzyme added.
(§2) Subsequently, lipid was extracted from these preparations by organic phase separation, and dried under vacuum. The dried lipid was suspended in ethanol, and the resulting lipidic solution was then injected into a normal phase silica column. Analysis was by HPLC, as described above. Lipid peaks were quantitated, and the amount of lipid cleavage was calculated as a percentage of the starting lipid.

S. griseus (“pronase”) = assay: Cleavage of N-Ac-ala-ala-DOPE by pronase (HPLC); format: biochemical; settings: DOTAP/N-acetyl-ala-ala-PE 1:1 SUVs, 100 nmole, 0.5 or 1.0 mg enzyme, overnight, 37 degrees C.
Description: as §1, §2

proteinase K = proteinase K (Parengyodontium album, UniProt P06873); assay: Proteinase K-mediated cleavage of N-Ac-AA-DOPE (TLC, 31P-NMR, HPLC); format: biochemical
proteinase K, sequence (P06873 106-384, species assumed): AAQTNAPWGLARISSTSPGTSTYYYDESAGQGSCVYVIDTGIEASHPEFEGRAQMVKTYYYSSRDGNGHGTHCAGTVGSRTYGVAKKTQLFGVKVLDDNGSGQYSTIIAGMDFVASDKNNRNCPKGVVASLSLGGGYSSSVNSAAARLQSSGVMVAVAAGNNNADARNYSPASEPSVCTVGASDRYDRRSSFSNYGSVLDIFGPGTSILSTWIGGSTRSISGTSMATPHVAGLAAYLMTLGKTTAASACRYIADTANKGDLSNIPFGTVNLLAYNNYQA
Description: Several proteases were tested to determine whether an enzyme with similar substrate specificity could be used as a model for elastase mediated cleavage of N-Ac-AA-DOPE. Proteinase K is a serine protease that, similarly to elastase, can cleave at peptide bonds C-terminal to aliphatic residues.
Subsequently, proteinase K, which has a similar substrate specificity to elastase, was used to model the elastase effect because of the lower cost of the enzyme. Referring to FIG. 3, samples A and C contained pure N-acetyl-ala-ala-DOPE and pure DOPE, respectively; sample B consisted of multilamellar liposomes, prepared as described hereinbelow, composed of pure N-acetyl-ala-ala-DOPE (2 μmole total phospholipid), which were incubated in 200 μl of 154 mM NaCl, 10 mM TES, 0.1 mM EDTA at pH 7.4 and 37 ° C. for two hours in the presence of 1 mg of proteinase K. After the first incubation, another equal amount of proteinase K was added and the sample was incubated for another 2 hours. All three samples were dissolved into a final concentration of 5% deoxycholate, 50 mM EDTA and 10 mM HEPES at pH 8 for proton decoupled ^31P NMR.
The conversion of N-Ac-AA-DOPE to DOPE was also monitored by ^31P-NMR analysis. N-Ac-AA-DOPE LUVs were prepared and treated with or without proteinase K (1.5 mg protein/100 nmol lipid) overnight at 37° C. Samples were mixed with buffer (10% deoxycholate, 100 mM EDTA, 20 mM Hepes) and deuterium oxide (Cambridge Isotope Laboratories, Woburn, Mass.) (1:4:2) and transferred to 5 mm NMR tubes. Samples were monitored at room temperature in a Bruker AC300 spectrometer operating at 121.5 MHz, with […] 90° radio frequency pulse for proton decoupling and set to 2 sec interpulse delay to avoid signal saturation. Sweep width was set at 50 kHz. 1 Hz line broadening was applied to all spectra.
Elastase and proteinase K mediated cleavage of N-Ac-AA-DOPE was quantitated using liposomes composed of N-Ac-AA-DOPE and DOTAP, a positively charged lipid. DOTAP was included to provide a counterbalancing positive charge, and was used as a standard by which different samples could be normalized and compared. After treatment with elastase or proteinase K the reduction in the amount of N-Ac-AA-DOPE was monitored by HPLC (FIG. 4). Liposomes composed of DOTAP/N-Ac-AA-DOPE (1:1) were incubated with enzyme under given conditions. Lipid was extracted by the Bligh-Dyer procedure twice.
Collected lipid was dried under a N2 stream and exposed to vacuum for 4 hours-overnight. Samples were resuspended in 100% ethanol and injected in 30 ul aliquots into Spherisorb silica columns (150×4.6 mm, […], Keystone Scientific). HPLC was performed using a hexane:isopropanol:water:TFA mobile phase. Hexane and TFA were held constant at 37% and 0.2%, respectively. The N-Ac-AA-DOPE peak was detected using a gradient of 59-55% isopropanol:4-8% water. Flow rate was 1.5 ml/min, column temperature was set at 45° C., and peaks were detected by a UV detector set at 205 nm. Lipid peaks were quantitated in comparison to standard curves generated by injecting 5-200 nmol of DOTAP or N-Ac-AA-DOPE and monitoring 205 nm signal. Percent cleavage was calculated by normalizing peaks to DOTAP, then determining the decrease in N-Ac-AA-DOPE peak size relative to starting amounts.
To verify that the cleavage of N-Ac-AA-DOPE was due to proteinase K enzymatic activity, liposomes were treated with heat inactivated proteinase K. Proteinase K was inactivated by heating at 95° C. for 1 hour, after which the enzyme was incapable of cleaving the chromogenic substrate N-Ac-AAA-pNA. […] In these experiments liposomes, prepared as described hereinbelow, were composed of 100% N-Acetyl-ala-ala-DOPE and were then extruded to approximately 0.2 microns diameter. Fifty micrograms of liposomal lipid was incubated alone or with one unit of HLE overnight at 37° C. […]

Human leukocyte elastase = target: T2, Human leukocyte elastase (Homo sapiens, UniProt P08246); assay: Elastase-mediated cleavage of N-Ac-AA-DOPE to DOPE (TLC, HPLC); format: biochemical; settings: overnight, 37° C.
T2 construct: purchased Calbiochem (San Diego, Calif.)
T2 sequence (P08246 30-247 limits assumed): T1 sequence (P08246 30-247 limits assumed)
Description: Cleavage of N-Ac-ala-ala-DOPE to DOPE by elastase was monitored by thin layer chromatography (TLC). The chemical structure of N-Ac-ala-ala-DOPE and its postulated scheme of conversion to DOPE by enzymatic cleavage is shown in FIG. 1. 100-200 nmol of N-Ac-AA-DOPE SUVs were incubated with 1 mg enzyme in 0.1 ml overnight at 37° C. Human leukocyte elastase was purchased from Calbiochem (San Diego, Calif.). Lipid was extracted by organic phase separation (Bligh and Dyer, 1959) twice. Collected lipid was dried under N^2 stream and exposed to vacuum for 4 hours-overnight. Samples were resuspended in chloroform and spotted onto TLC plates. […]
Elastase and proteinase K mediated cleavage of N-Ac-AA-DOPE was quantitated using liposomes composed of N-Ac-AA-DOPE and DOTAP, a positively charged lipid. […] After treatment with elastase or proteinase K the reduction in the amount of N-Ac-AA-DOPE was monitored by HPLC (FIG. 4). […]
Collected lipid was dried under a N2 stream and exposed to vacuum for 4 hours-overnight. […] The N-Ac-AA-DOPE peak was detected using a gradient of 59-55% isopropanol:4-8% water. Flow rate was 1.5 ml/min, column temperature was set at 45° C., and peaks were detected by a UV detector set at 205 nm. Lipid peaks were quantitated in comparison to standard curves generated by injecting 5-200 nmol of DOTAP or N-Ac-AA-DOPE and monitoring 205 nm signal. […]

In the case of `CCCCCCCC/C=C\CCCCCCCC(=O)OCC(CN(C)C)OC(=O)CCCCCCC/C=C\CCCCCCCC` (centres unmarked) [DODAP, 1-N,N-dimethylamino dioleoyl propane], the “DODAP population positively charged” value [1] is listed as 20%.
For `CCCCCCCC/C=C\CCCCCCCC(=O)OC[C@H](COP(=O)(O)OCCNC(=O)[C@@H](NC(=O)[C@@H]1CCCN1C(=O)[C@H](C)NC(=O)[C@H](C)NC(=O)CCC(=O)OC)C(C)C)OC(=O)CCCCCCC/C=C\CCCCCCCC` [MeO-suc-AAPV-DOPE, 1,2-Dioleoyl-sn-glycero-3-phosphoethanolamido-val-pro-ala-ala-sucMeO], the “DOPE yielded from MeO-suc-AAPV-DOPE (31P-NMR)” value ([2]; DODAP/MeO-suc-AAPV-DOPE 1:1 vesicles, 5 micrograms of elastase/100 nmol lipid, 37° C.) was 20%, the Available peptide-lipid cleaved ([2]; assuming approximately 2.5 lamellae per vesicle, 5 micrograms elastase/100 nmol lipid) was 100% and the “Minimal percentage conversion of exposed MeO-suc-AAPV-DOPE to DOPE in the outer leaflet” value ([2]; assuming unilamellar vesicles, 5 micrograms elastase/100 nmol lipid) was no less than 40%.
For `CCCCCCCC/C=C\CCCCCCCC(=O)OCC(COP(=O)(O)OCCNC(=O)[C@H](C)NC(=O)[C@H](C)NC(C)=O)OC(=O)CCCCCCC/C=C\CCCCCCCC` (some centres unmarked) [N-Ac-AA-DOPE, N-acetyl-alanyl-alanyl-dioleoyl phosphatidylethanolamine], the “Cleavage of N-Ac-ala-ala-DOPE from liposomes by other proteases (HPLC)” value [3] was “did not cleave”, the “Cleavage of N-Ac-ala-ala-DOPE from liposomes by pronase (HPLC)” value (S. griseus (“pronase”)) was “effected cleavage” and the “Cleavage of N-Ac-AA-DOPE by proteinase K (HPLC)” value (proteinase K; DOTAP/N-Ac-AA-DOPE (1:1) liposomes, 1 mg protease/100 nmol lipid, overnight, 37° C.) was “cleaved N-Ac-AA-DOPE to a similar extent”. For the same molecule, the “Cleavage of N-Ac-AA-DOPE by heat inactivated proteinase K (HPLC)” value (proteinase K; DOTAP/N-Ac-AA-DOPE liposomes, proteinase K inactivated 95° C., 1 hour) was “did not result in any cleavage”, the “Cleavage of N-Ac-ala-ala-DOPE from liposomes by proteinase K (HPLC)” value (proteinase K; DOTAP/N-acetyl-ala-ala-PE 1:1 SUVs, 100 nmole, 0.5 or 1.0 mg enzyme, overnight, 37 degrees C.) was “effected cleavage” and the “Conversion of N-Ac-AA-DOPE to DOPE (31P-NMR)” value (proteinase K; LUVs, proteinase K 1.5 mg protease/100 nmol lipid, overnight, 37° C.) was “appearance of a peak 0.3 ppm upfield from N-Ac-AA-DOPE, corresponding with pure DOPE”. For the same molecule, the “Cleavage of N-Ac-AA-DOPE by proteinase K (TLC)” value (proteinase K; N-Ac-AA-DOPE liposomes, 1 mg enzyme/100 nmol lipid, overnight, 37° C.) was “the peptide-lipid was cleaved and DOPE was generated”, the “N-acetyl-ala-ala-DOPE converted to pure DOPE (31P NMR integration)” value (proteinase K; multilamellar liposomes of pure conjugate, 1 mg proteinase K 2 hours + equal amount another 2 hours, pH 7.4, 37° C.) was “approximately 20%” and the “Cleavage of N-Ac-AA-DOPE by elastase (HPLC)” value (Human leukocyte elastase; DOTAP/N-Ac-AA-DOPE (1:1) liposomes, 1 mg protease/100 nmol lipid) was “cleaved N-Ac-AA-DOPE to a similar extent”. The “Cleavage of N-Ac-AA-DOPE to DOPE by elastase (TLC)” value (Human leukocyte elastase; N-Ac-AA-DOPE SUVs, 1 mg enzyme in 0.1 ml) was “generated a product corresponding to DOPE”.
